Experimental data from patent US20120231072A1, “THERMO-RESPONSIVE HYDROGEL COMPOSITIONS” (Chemisches Institut Schaefer AG, priority 2011, published 2012).
Where a name gives a salt, the structure may show the parent alone. Read-outs that look alike come from different tables or passages of the source.

What was measured:
[1] = cited from earlier work
[2] = system: endotoxin-induced uveitis (EIU) animal model; conditions: 24 hours after intravitreal treatment; LPS alone ~45% vasodilation
Method: Adult male Lewis rats (weight 310-350 g) were used as an endotoxin-induced uveitis (EIU) animal model. LPS from Salmonella Typhimurium (Sigma Aldrich, St. Louis, Mo.) was mixed with PBS immediately prior to the injection. The animals were divided as followed:
Control: intravitreal injection of LPS at day 0. ˜5 μl intravitreal injection of control gel (no dexamethasone) at 24 hrs after the LPS induction (day 1);
Treatment control: intravitreal injection of LPS at day 0. ˜5 μl intravitreal injection of dexamethasone (10 mg/ml dose, Sigma) at 24 hrs after the LPS induction;
Treatment 1: intravitreal injection of LPS at day 0. ˜5 μl intravitreal injection of dexamethasone hydrogel (10 mg/ml dose, Sigma) at 24 hrs after the LPS induction; and
Treatment 2: intravitreal injection of LPS at day 0. ˜5 μl subconjunctival injection of dexamethasone hydrogel (10 mg/ml dose, Sigma) at 24 hrs after the LPS induction.
The dexamethasone was loaded by equilibrating 0.1 ml of hydrogel in 2 ml of dexamethasone drug solution. SLO images and blood flow measurement were obtained before the LPS induction, 1, 2, 3, and 6 days after the LPS (and dexametheasone treatment). Furthermore, in one animal, the thermo-hydrogel (control) was applied directly to the cornea (simulate eyedrops).

[3] = Drug encapsulation efficiency in PLGA particles; format: physicochemical
Method: The clear organic mixture was emulsified into an external aqueous phase (5 ml, 2% w/v PVA) with vortexing for 20 seconds followed by sonication on ice at 55 W for 5 minutes. […] Nanospheres were harvested by ultracentrifugation at 16,000 g for 10 min, after which the resultant pellet was re-suspended in DI water by sonication and washed twice with DI water. […] Dynamic light scattering (DLS) was used to characterize the size of the nanospheres. To investigate nanosphere encapsulation in thermo-responsive hydrogels, nanospheres were added into the hydrogel precursor solutions at 0, 2.5, 5, and 10 mg/ml prior to polymerization initiated by the addition of TEMED. The hydrogels were then washed 5 times with PBS every 20 minutes, as described for hydrogels with no nanospheres. Swelling ratio was tested for hydrogels with varying concentration of nanospheres at both room and body temperature.
The drug concentration was determined spectrophotometrically at 240 nm. […] The encapsulation efficiency was calculated as (actual drug loaded/total drug used)×100%.

P (oil/water) (Methylene chloride + methanol / 0.2% PVA)	P (oil/water) (Methylene chloride + methanol / 2% PVA)	P (oil/water) (Methylene chloride + methanol / 2% PVA + 0.25N (NH4)2SO4)	P (oil/water) (Methylene chloride + methanol / 2% PVA + 0.5N NaCl)	encapsulation efficiency ([3]; dexamethasone 1:2 (w/w) of PLGA)	encapsulation efficiency ([3]; dexamethasone 1:10 (w/w) of PLGA)	Compound	solubility in water [1]	degree of dilation of retinal vessels [2]
0.06	0.15	0.86	0.26	–	–	C[C@@H]1C[C@H]2[C@@H]3CCC4=CC(=O)C=C[C@]4(C)[C@@]3(F)[C@@H](O)C[C@]2(C)[C@@]1(O)C(=O)COP(=O)(O)O [DSP, Dexamethasone 21-phosphate disodium salt]	> 50 mg/mL	–
–	–	–	–	7.5%	2.5%	C[C@@H]1C[C@H]2[C@@H]3CCC4=CC(=O)C=C[C@]4(C)[C@@]3(F)[C@@H](O)C[C@]2(C)[C@@]1(O)C(=O)CO [dexamethasone]	–	~15%
